Target: T1, MAPK15 (ERK7) (Homo sapiens, UniProt Q8TD08)
T1 construct: purchased Thermo Fisher Scientific (Life Technologies) SelectScreen
Experiment: SelectScreen LanthaScreen
Type: binding
Settings: read-out: % displacement
Procedure, shortened: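 NU5455 was profiled across the SelectScreen Broad panel of kinase activity and binding assays. Z'LYTE reactions such as CSF1R ran at apparent Km ATP, while the Adapta CAMK1 assay used ATP listed as 10. Values are given as percent.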

T1 sequence (Q8TD08 whole entry): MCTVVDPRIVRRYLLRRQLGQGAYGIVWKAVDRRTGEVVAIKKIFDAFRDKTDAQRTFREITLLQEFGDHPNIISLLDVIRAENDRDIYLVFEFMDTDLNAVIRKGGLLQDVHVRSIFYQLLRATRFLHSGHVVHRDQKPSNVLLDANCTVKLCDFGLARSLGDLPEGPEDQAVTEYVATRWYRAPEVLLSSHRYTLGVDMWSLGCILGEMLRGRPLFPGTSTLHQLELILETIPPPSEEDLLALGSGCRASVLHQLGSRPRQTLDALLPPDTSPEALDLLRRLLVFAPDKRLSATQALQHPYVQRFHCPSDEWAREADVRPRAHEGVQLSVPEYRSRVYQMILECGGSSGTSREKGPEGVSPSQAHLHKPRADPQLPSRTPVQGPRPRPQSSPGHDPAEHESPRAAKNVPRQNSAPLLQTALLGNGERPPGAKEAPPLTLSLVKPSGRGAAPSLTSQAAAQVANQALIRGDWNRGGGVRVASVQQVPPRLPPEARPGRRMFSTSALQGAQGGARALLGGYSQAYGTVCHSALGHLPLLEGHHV

CN(C(=O)CN1CCOCC1)c1ccc2sc3c(-c4cccc5c(=O)cc(N6CC7CCC(C6)O7)oc45)cccc3c2c1 [NU5455]
inhibition at 1 µM: 3.6%

From PMC6934184, “Selective DNA-PKcs inhibition extends the therapeutic index of localized radiotherapy and chemotherapy” (The Journal of Clinical Investigation, 2019)
